Test results taken from PubChem BioAssay (NCI).
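Tested at 5 concentrations; 48 h exposure; 96-well plates; endpoints linearly interpolated, else capped at highest concentration. TGI marks complete inhibition of growth.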

Assays:
Assay in all cases: NCI-60 cell line screen, 48 h
HOP-92 NSCLC = system: HOP-92 NSCLC
HL-60(TB) leukemia = system: HL-60(TB) leukemia
ACHN renal = system: ACHN renal
SK-MEL-28 melanoma = system: SK-MEL-28 melanoma
A498 renal = system: A498 renal
NCI/ADR-RES ovarian = system: NCI/ADR-RES ovarian
OVCAR-4 ovarian = system: OVCAR-4 ovarian
OVCAR-3 ovarian = system: OVCAR-3 ovarian
SK-MEL-5 melanoma = system: SK-MEL-5 melanoma
OVCAR-5 ovarian = system: OVCAR-5 ovarian
RXF 393 renal = system: RXF 393 renal
HOP-62 NSCLC = system: HOP-62 NSCLC
CCRF-CEM leukemia = system: CCRF-CEM leukemia
T-47D breast = system: T-47D breast
SF-539 CNS = system: SF-539 CNS
MDA-MB-435 = system: MDA-MB-435
LOX IMVI melanoma = system: LOX IMVI melanoma
SF-268 CNS = system: SF-268 CNS
PC-3 prostate = system: PC-3 prostate
EKVX NSCLC = system: EKVX NSCLC
U251 CNS = system: U251 CNS
RPMI-8226 leukemia = system: RPMI-8226 leukemia
M14 melanoma = system: M14 melanoma
UACC-257 melanoma = system: UACC-257 melanoma
HCC-2998 colon = system: HCC-2998 colon
A549 NSCLC = system: A549 NSCLC
UO-31 renal = system: UO-31 renal
TK-10 renal = system: TK-10 renal
HT29 colon = system: HT29 colon
HS 578T breast = system: HS 578T breast
SK-OV-3 ovarian = system: SK-OV-3 ovarian
OVCAR-8 ovarian = system: OVCAR-8 ovarian
786-0 renal = system: 786-0 renal
NCI-H23 lung = system: NCI-H23 lung
HCT-15 colon = system: HCT-15 colon
NCI-H460 lung = system: NCI-H460 lung
K-562 leukemia = system: K-562 leukemia
SF-295 CNS = system: SF-295 CNS
DU-145 prostate = system: DU-145 prostate
HCT-116 colon = system: HCT-116 colon
MDA-N = system: MDA-N
MDA-MB-231 breast = system: MDA-MB-231 breast
IGROV1 ovarian = system: IGROV1 ovarian
SNB-75 CNS = system: SNB-75 CNS
SR leukemia = system: SR leukemia
NCI-H522 lung = system: NCI-H522 lung
MCF7 breast = system: MCF7 breast
SNB-19 CNS = system: SNB-19 CNS
MALME-3M melanoma = system: MALME-3M melanoma
MOLT-4 leukemia = system: MOLT-4 leukemia
SW-620 colon = system: SW-620 colon
SK-MEL-2 melanoma = system: SK-MEL-2 melanoma
CAKI-1 renal = system: CAKI-1 renal
BT-549 breast = system: BT-549 breast
SN12C renal = system: SN12C renal
NCI-H226 lung = system: NCI-H226 lung
KM12 colon = system: KM12 colon
COLO 205 colon = system: COLO 205 colon
UACC-62 melanoma = system: UACC-62 melanoma

Q: Which results are given for `CCOC(=O)C(Cc1ccc2c(c1)CCC2)Cc1ccc2c(c1)CCC2`?
A: TGI (HOP-92 NSCLC): > 100 µM; TGI (HL-60(TB) leukemia): 58.2 µM; TGI (ACHN renal): > 100 µM; TGI (SK-MEL-28 melanoma): > 100 µM; TGI (A498 renal): > 100 µM; TGI (NCI/ADR-RES ovarian): > 100 µM; TGI (OVCAR-4 ovarian): > 100 µM; TGI (OVCAR-3 ovarian): > 100 µM; TGI (SK-MEL-5 melanoma): 40.3 µM; TGI (OVCAR-5 ovarian): > 100 µM; TGI (RXF 393 renal): > 100 µM; TGI (HOP-62 NSCLC): > 100 µM; TGI (CCRF-CEM leukemia): > 100 µM; TGI (T-47D breast): > 100 µM; TGI (SF-539 CNS): > 100 µM; TGI (MDA-MB-435): > 100 µM; TGI (LOX IMVI melanoma): 47.8 µM; TGI (SF-268 CNS): > 100 µM; TGI (PC-3 prostate): > 100 µM; TGI (EKVX NSCLC): > 100 µM; TGI (U251 CNS): > 100 µM; TGI (RPMI-8226 leukemia): > 100 µM; TGI (M14 melanoma): > 100 µM; TGI (UACC-257 melanoma): > 100 µM; TGI (HCC-2998 colon): > 100 µM; TGI (A549 NSCLC): > 100 µM; TGI (UO-31 renal): > 100 µM; TGI (TK-10 renal): > 100 µM; TGI (HT29 colon): > 100 µM; TGI (HS 578T breast): > 100 µM; TGI (SK-OV-3 ovarian): > 100 µM; TGI (OVCAR-8 ovarian): > 100 µM; TGI (786-0 renal): > 100 µM; TGI (NCI-H23 lung): > 100 µM; TGI (HCT-15 colon): > 100 µM; TGI (NCI-H460 lung): > 100 µM; TGI (K-562 leukemia): 85.7 µM; TGI (SF-295 CNS): > 100 µM; TGI (DU-145 prostate): > 100 µM; TGI (HCT-116 colon): > 100 µM; TGI (MDA-N): > 100 µM; TGI (MDA-MB-231 breast): > 100 µM; TGI (IGROV1 ovarian): > 100 µM; TGI (SNB-75 CNS): > 100 µM; TGI (SR leukemia): 60.1 µM; TGI (NCI-H522 lung): > 100 µM; TGI (MCF7 breast): > 100 µM; TGI (SNB-19 CNS): > 100 µM; TGI (MALME-3M melanoma): > 100 µM; TGI (MOLT-4 leukemia): 41.1 µM; TGI (SW-620 colon): > 100 µM; TGI (SK-MEL-2 melanoma): > 100 µM; TGI (CAKI-1 renal): > 100 µM

Q: For `O=C1CCCC(=O)N1n1c(Cc2ccc(Cl)cc2)n[nH]c1=O`, which TGI (HL-60(TB) leukemia) is on record?
A: Its TGI is > 100 µM.

Q: And the TGI (BT-549 breast)?
A: Its TGI is > 100 µM.

Q: What about the TGI (ACHN renal) of the same compound?
A: The TGI was > 100 µM.

Q: And the TGI (SK-MEL-28 melanoma)?
A: Its TGI is > 100 µM.

Q: What about the TGI (SN12C renal) of the same compound?
A: The TGI was > 100 µM.

Q: What about the TGI (NCI/ADR-RES ovarian) of the same compound?
A: Its TGI is > 100 µM.

Q: What about the TGI (OVCAR-4 ovarian) of the same compound?
A: The TGI was > 100 µM.

Q: And the TGI (OVCAR-3 ovarian)?
A: The TGI was > 100 µM.

Q: And the TGI (SK-MEL-5 melanoma)?
A: Its TGI is > 100 µM.

Q: What about the TGI (OVCAR-5 ovarian) of the same compound?
A: Its TGI is > 100 µM.

Q: What about the TGI (NCI-H226 lung) of the same compound?
A: Its TGI is > 100 µM.

Q: And the TGI (RXF 393 renal)?
A: The TGI was > 100 µM.

Q: And the TGI (HOP-62 NSCLC)?
A: Its TGI is > 100 µM.

Q: And the TGI (CCRF-CEM leukemia)?
A: Its TGI is > 100 µM.

Q: What about the TGI (T-47D breast) of the same compound?
A: Its TGI is > 100 µM.

Q: And the TGI (SF-539 CNS)?
A: The TGI was > 100 µM.

Q: And the TGI (KM12 colon)?
A: The TGI was > 100 µM.

Q: What about the TGI (MDA-MB-435) of the same compound?
A: The TGI was > 100 µM.

Q: And the TGI (LOX IMVI melanoma)?
A: The TGI was > 100 µM.

Q: And the TGI (SF-268 CNS)?
A: Its TGI is > 100 µM.

Q: What about the TGI (PC-3 prostate) of the same compound?
A: The TGI was > 100 µM.

Q: What about the TGI (EKVX NSCLC) of the same compound?
A: Its TGI is > 100 µM.

Q: And the TGI (U251 CNS)?
A: The TGI was > 100 µM.

Q: What about the TGI (RPMI-8226 leukemia) of the same compound?
A: Its TGI is > 100 µM.

Q: And the TGI (M14 melanoma)?
A: Its TGI is > 100 µM.

Q: What about the TGI (UACC-257 melanoma) of the same compound?
A: Its TGI is > 100 µM.

Q: And the TGI (HCC-2998 colon)?
A: Its TGI is > 100 µM.

Q: What about the TGI (A549 NSCLC) of the same compound?
A: The TGI was > 100 µM.

Q: What about the TGI (UO-31 renal) of the same compound?
A: The TGI was > 100 µM.

Q: And the TGI (TK-10 renal)?
A: The TGI was > 100 µM.

Q: And the TGI (HT29 colon)?
A: The TGI was > 100 µM.

Q: And the TGI (HS 578T breast)?
A: The TGI was > 100 µM.

Q: And the TGI (SK-OV-3 ovarian)?
A: Its TGI is > 100 µM.

Q: What about the TGI (OVCAR-8 ovarian) of the same compound?
A: The TGI was > 100 µM.

Q: And the TGI (786-0 renal)?
A: The TGI was > 100 µM.

Q: What about the TGI (NCI-H23 lung) of the same compound?
A: Its TGI is > 100 µM.

Q: And the TGI (COLO 205 colon)?
A: The TGI was > 100 µM.

Q: What about the TGI (HCT-15 colon) of the same compound?
A: The TGI was > 100 µM.

Q: What about the TGI (NCI-H460 lung) of the same compound?
A: The TGI was > 100 µM.

Q: And the TGI (K-562 leukemia)?
A: The TGI was > 100 µM.

Q: And the TGI (SF-295 CNS)?
A: Its TGI is > 100 µM.

Q: And the TGI (DU-145 prostate)?
A: Its TGI is > 100 µM.

Q: What about the TGI (HCT-116 colon) of the same compound?
A: Its TGI is > 100 µM.

Q: And the TGI (MDA-N)?
A: The TGI was > 100 µM.

Q: What about the TGI (MDA-MB-231 breast) of the same compound?
A: Its TGI is > 100 µM.

Q: What about the TGI (IGROV1 ovarian) of the same compound?
A: Its TGI is > 100 µM.

Q: What about the TGI (SNB-75 CNS) of the same compound?
A: The TGI was > 100 µM.

Q: What about the TGI (UACC-62 melanoma) of the same compound?
A: The TGI was > 100 µM.

Q: What about the TGI (NCI-H522 lung) of the same compound?
A: The TGI was > 100 µM.

Q: What about the TGI (MCF7 breast) of the same compound?
A: Its TGI is > 100 µM.

Q: And the TGI (SNB-19 CNS)?
A: Its TGI is > 100 µM.

Q: What about the TGI (MALME-3M melanoma) of the same compound?
A: Its TGI is > 100 µM.

Q: What about the TGI (MOLT-4 leukemia) of the same compound?
A: Its TGI is > 100 µM.

Q: And the TGI (SW-620 colon)?
A: The TGI was > 100 µM.

Q: And the TGI (SK-MEL-2 melanoma)?
A: Its TGI is > 100 µM.

Q: And the TGI (CAKI-1 renal)?
A: Its TGI is > 100 µM.
